± gives the standard deviation of the averaged measurements.
What was measured:
CRIZOTINIB = compound: C[C@@H](Oc1cc(-c2cnn(C3CCNCC3)c2)cnc1N)c1c(Cl)ccc(F)c1Cl [CRIZOTINIB]; experiment: surviving fraction relative to DMSO-only wells; higher = less growth inhibition; conditions: exposure time: 5 days
Summary of the method: (§1)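 Viability was scored with CellTiter-Glo luminescence and normalised to the median of DMSO-only wells as surviving fraction. Beforehand, log-phase tumour cell lines were seeded at 250–500 cells per well in 384-well plates, allowed 24 hours, and exposed continuously for five days to inhibitors at 0.5, 1, 5, 10, 50, 100, 500 and 1000 nM. Only lines whose three screens gave replicate Pearson r >0.7 and median Z' >0.3 were kept.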

TEMOZOLOMIDE = compound: Cn1nnc2c(C(N)=O)ncn2c1=O [TEMOZOLOMIDE]; experiment: as above; conditions: exposure time: 5 days
Summary of the method: as §1

Row | Test System | surviving fraction (CRIZOTINIB; 0.5 nM) | surviving fraction (CRIZOTINIB; 1 nM) | surviving fraction (CRIZOTINIB; 5 nM) | surviving fraction (CRIZOTINIB; 10 nM) | surviving fraction (CRIZOTINIB; 50 nM) | surviving fraction (CRIZOTINIB; 100 nM) | surviving fraction (CRIZOTINIB; 500 nM) | surviving fraction (CRIZOTINIB; 1000 nM) | surviving fraction (TEMOZOLOMIDE; 0.5 nM) | surviving fraction (TEMOZOLOMIDE; 1 nM) | surviving fraction (TEMOZOLOMIDE; 5 nM) | surviving fraction (TEMOZOLOMIDE; 10 nM) | surviving fraction (TEMOZOLOMIDE; 50 nM) | surviving fraction (TEMOZOLOMIDE; 100 nM) | surviving fraction (TEMOZOLOMIDE; 500 nM) | surviving fraction (TEMOZOLOMIDE; 1000 nM)
1 | G292 BONE | 1.02 ± 0.037 | 1.04 ± 0.055 | 1.07 ± 0.012 | 1.08 ± 0.038 | 0.9452 ± 0.0094 | 0.951 ± 0.033 | 0.634 ± 0.025 | 0.41 ± 0.016 | 1.01 ± 0.015 | 0.9995 ± 0.0082 | 0.981 ± 0.037 | 1.05 ± 0.018 | 1.04 ± 0.062 | 1.02 ± 0.025 | 0.986 ± 0.048 | 0.992 ± 0.029
2 | HCC38 BREAST | 1.27 ± 0.15 | 1.18 ± 0.06 | 1.31 ± 0.069 | 1.28 ± 0.041 | 1.29 ± 0.13 | 1.28 ± 0.13 | – | 0.63 ± 0.09 | 1.34 ± 0.19 | 1.25 ± 0.04 | 1.31 ± 0.13 | 1.39 ± 0.032 | 1.33 ± 0.11 | 1.32 ± 0.06 | 1.3 ± 0.26 | 1.33 ± 0.11
3 | HCC70 BREAST | 1.09 ± 0.06 | 1.1 ± 0.13 | 1.16 ± 0.022 | – | 1.18 ± 0.1 | – | 1.07 ± 0.059 | 0.818 ± 0.12 | 0.984 ± 0.016 | 1.04 ± 0.11 | 1.07 ± 0.064 | 1.08 ± 0.054 | 1.06 ± 0.079 | 1.15 ± 0.095 | 1.06 ± 0.09 | 1.09 ± 0.086
4 | HMLE3 BREAST | 1.07 ± 0.043 | – | 1.18 ± 0.081 | 1.07 ± 0.089 | 1.05 ± 0.054 | 1.04 ± 0.12 | 0.828 ± 0.062 | 0.649 ± 0.046 | 1.01 ± 0.053 | 1.12 ± 0.085 | 1.01 ± 0.11 | 1.04 ± 0.021 | 1.03 ± 0.039 | 1.03 ± 0.026 | 1.03 ± 0.044 | 1.15 ± 0.079
5 | HMT3552 BREAST | 1.01 ± 0.042 | 1.05 ± 0.073 | 1.04 ± 0.015 | 1.06 ± 0.015 | 1.07 ± 0.023 | 1.18 ± 0.035 | 0.597 ± 0.045 | 0.201 ± 0.012 | 1.09 ± 0.094 | 1.07 ± 0.015 | 1.05 ± 0.038 | 1.09 ± 0.071 | 1.15 ± 0.06 | 1.19 ± 0.063 | 1.09 ± 0.039 | 1.15 ± 0.022
6 | HS578T BREAST | 1.04 ± 0.16 | 1.13 ± 0.17 | 1.13 ± 0.11 | 1.14 ± 0.18 | 1.07 ± 0.25 | 0.994 ± 0.14 | 0.833 ± 0.066 | 0.722 ± 0.021 | 0.927 ± 0.11 | 0.886 ± 0.094 | 0.91 ± 0.15 | 0.913 ± 0.054 | 1.05 ± 0.1 | 0.916 ± 0.074 | 0.936 ± 0.12 | 0.942 ± 0.12
